{"source": "paper PMC11790914", "about": "“Chemogenomics for steroid hormone receptors (NR3)” (Communications Chemistry, 2025)", "key": {"[1]": {"test_system": "Gal4-VP16", "assay_type": "cell-based", "conditions": "3 µM; vs. DMSO ctrl; single replicates n=1-3"}, "[2]": {"molecular_target": "T1, GSK3B (Homo sapiens, UniProt P49841)", "T1 construct": "made in house", "T1 sequence (P49841 whole entry, species assumed)": "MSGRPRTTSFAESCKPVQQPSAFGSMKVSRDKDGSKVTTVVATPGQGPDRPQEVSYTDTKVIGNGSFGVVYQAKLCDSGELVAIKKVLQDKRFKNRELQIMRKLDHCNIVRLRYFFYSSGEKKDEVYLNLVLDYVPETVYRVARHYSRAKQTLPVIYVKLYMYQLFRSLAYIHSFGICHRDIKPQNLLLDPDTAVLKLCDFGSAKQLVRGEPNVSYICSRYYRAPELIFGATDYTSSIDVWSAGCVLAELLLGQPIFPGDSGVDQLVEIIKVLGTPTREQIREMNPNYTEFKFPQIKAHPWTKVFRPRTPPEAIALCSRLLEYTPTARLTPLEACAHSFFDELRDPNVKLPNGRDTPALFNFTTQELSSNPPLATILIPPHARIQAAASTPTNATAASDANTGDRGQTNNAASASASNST", "assay": "Liability panel screening by DSF: GSK3B", "assay_type": "binding", "conditions": "DSF, 20 µM, n=2; read-out: Mean ΔTM GSK3B"}, "[3]": {"test_system": "HEK293T cells", "assay": "Cytotoxicity: metabolic activity (WST-8 / CCK-8 assay)", "conditions": "3 µM; HEK293T, 24 h; WST-8; normalized to 0.1% DMSO; single replicates", "description": "Cells were incubated with the test compounds at the indicated concentrations solubilized with 0.1% DMSO for 24 h. Growth-rate was determined based on the change in confluence over 24 h normalized to the change in confluence of cells treated with the 0.1% DMSO control (n = 10). Metabolic activity was determined with a water-soluble tetrazolium-8 (WST-8) assay (n = 8) after 24 h treatment. Apoptotic cells were detected with a fluorogenic DNA dye coupled to the caspase-3/7 recognition sequence (DEVD) after 24 h treatment and the apoptotic cell count was normalized to 0.1% DMSO treated cells (n = 6).\nHEK293T cells (German Collection of Microorganisms and Cell Culture GmbH, DSMZ; #ACC305) were cultured in DMEM high glucose, supplemented with 10% fetal calf serum (FCS), sodium pyruvate (1 mM), penicillin (100 µ/mL) and streptomycin (100 µg/mL) at 37 °C and 5% (v/v) CO2, and seeded in pre-coated (10 µg/mL collagen G solution (Merck KgaA; #L7213) for 30 min at 37 °C) 96-well plates (2 × 10^5 cells per well). After 24 h, the cells were treated with the respective NR3 CG compound candidate at the recommended concentration, bexarotene (100 µM) or doxorubicin (30 µM) as positive controls in DMEM high glucose supplemented with 0.1% FCS, penicillin (100 µ/mL), streptomycin (100 µg/mL) and 0.1% DMSO, or 0.1% DMSO alone as an untreated control. Each sample was prepared in at least four biologically independent replicates. […] Thereafter, the medium was aspirated and the cells were incubated for 3 h with 90 µL DMEM high glucose supplemented with 0.2% FCS, penicillin (100 µ/mL) and streptomycin (100 µg/mL) and additionally containing 10 µL Cell Counting Kit 8 solution (CCK-8; MedChemExpress, Monmouth Junction, New York, USA; #HY-K0301), and absorbance was measured at 1 h, 2 h and 3 h of incubation at 450 nm on a Tecan Spark Cyto to assess metabolic activity of the cells. Before drug administration, after the first medium exchange, 24 h after drug administration, and after fluorescence imaging cell confluence was assessed using the Tecan Spark Cyto, to account for changes in cell confluence due to drug administration and cell handling. Compound effects on cell confluence, apoptosis, metabolic activity and necrosis were normalized to the vehicle control of each biological replicate individually."}, "[4]": {"test_system": "NR3B2 (ERRβ)", "conditions": "ref Supplementary Table 1; cited from earlier work"}, "[5]": {"molecular_target": "T2, TRIM24 (Homo sapiens, UniProt O15164)", "T2 construct": "This panel comprised ten highly ligandable kinases and bromodomains; made in house", "T2 sequence (O15164 899-1004 limits assumed)": "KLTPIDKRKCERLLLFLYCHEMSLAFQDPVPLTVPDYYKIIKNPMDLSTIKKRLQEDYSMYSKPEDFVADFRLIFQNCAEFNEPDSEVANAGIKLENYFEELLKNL", "assay": "Liability panel screening by DSF: TRIM24", "assay_type": "binding", "conditions": "DSF, 20 µM, n=2; read-out: Mean ΔTM TRIM24", "outline": "(§1)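 Thermal shift: in-house recombinant protein at 2 µM in 10 mM HEPES pH 7.5 with 500 mM NaCl, SYPRO Orange 1:1000, heated at 3 °C/min to 85 °C in technical duplicates. Tm is the Boltzmann inflection point, reported as ∆Tm in K.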"}, "[6]": {"test_system": "HEK293T cells", "assay": "Cytotoxicity: growth-rate (change in confluence over 24 h)", "conditions": "3 µM, normalized to 0.1% DMSO control, single replicates (n=1...)"}, "[7]": {"test_system": "HEK293T cells", "assay": "Cytotoxicity: necrosis induction (red fluorescent dye for permeable plasma membranes)", "assay_type": "cell-based", "conditions": "3 µM, 24 h, necrotic cell count normalized to 0.1% DMSO, single replicates"}, "[8]": {"molecular_target": "T3, ABL1 (Homo sapiens, UniProt P00519)", "T3 construct": "made in house", "T3 sequence (P00519 whole entry, species assumed)": "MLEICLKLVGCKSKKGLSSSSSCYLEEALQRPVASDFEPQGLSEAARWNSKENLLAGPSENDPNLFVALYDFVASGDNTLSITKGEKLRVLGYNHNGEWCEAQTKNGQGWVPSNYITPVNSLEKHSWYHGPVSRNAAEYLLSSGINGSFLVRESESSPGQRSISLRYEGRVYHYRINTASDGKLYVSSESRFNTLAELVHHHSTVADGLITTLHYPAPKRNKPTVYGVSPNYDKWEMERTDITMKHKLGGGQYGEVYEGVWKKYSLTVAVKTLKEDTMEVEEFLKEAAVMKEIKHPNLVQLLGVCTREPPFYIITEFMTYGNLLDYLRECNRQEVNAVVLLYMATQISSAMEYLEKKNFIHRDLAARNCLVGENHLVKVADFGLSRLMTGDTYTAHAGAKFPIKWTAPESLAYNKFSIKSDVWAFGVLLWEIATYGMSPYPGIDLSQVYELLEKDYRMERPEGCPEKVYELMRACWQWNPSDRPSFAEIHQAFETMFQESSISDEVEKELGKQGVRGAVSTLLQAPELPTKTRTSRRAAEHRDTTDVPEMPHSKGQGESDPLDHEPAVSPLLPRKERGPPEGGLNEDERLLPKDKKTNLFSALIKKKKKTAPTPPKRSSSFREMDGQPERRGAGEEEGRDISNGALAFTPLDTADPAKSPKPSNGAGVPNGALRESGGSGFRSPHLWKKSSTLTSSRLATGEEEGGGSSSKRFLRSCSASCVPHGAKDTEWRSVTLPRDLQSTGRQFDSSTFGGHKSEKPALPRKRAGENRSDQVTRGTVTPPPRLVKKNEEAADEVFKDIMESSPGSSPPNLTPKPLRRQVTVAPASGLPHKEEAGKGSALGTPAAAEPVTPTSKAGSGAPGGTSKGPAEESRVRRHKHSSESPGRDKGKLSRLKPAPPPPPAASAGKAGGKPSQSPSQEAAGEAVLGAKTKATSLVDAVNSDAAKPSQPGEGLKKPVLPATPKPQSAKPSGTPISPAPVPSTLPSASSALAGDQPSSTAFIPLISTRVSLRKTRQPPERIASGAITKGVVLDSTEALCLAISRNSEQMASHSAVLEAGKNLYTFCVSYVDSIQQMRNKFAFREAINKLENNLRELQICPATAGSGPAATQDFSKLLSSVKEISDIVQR", "assay": "Liability panel screening by DSF: ABL1", "assay_type": "binding", "conditions": "DSF, 20 µM, n=2; read-out: Mean ΔTM ABL1", "outline": "as §1"}, "[9]": {"molecular_target": "T4, BRD4 (Homo sapiens, UniProt O60885)", "T4 construct": "This panel comprised ten highly ligandable kinases and bromodomains; made in house", "assay": "Liability panel screening by DSF: BRD4", "assay_type": "binding", "conditions": "DSF, 20 µM, n=2; read-out: Mean ΔTM BRD4", "outline": "as §1"}, "[10]": {"molecular_target": "T5, FGFR3 (Homo sapiens, UniProt P22607)", "T5 construct": "made in house", "T5 sequence (P22607 23-806, species assumed)": "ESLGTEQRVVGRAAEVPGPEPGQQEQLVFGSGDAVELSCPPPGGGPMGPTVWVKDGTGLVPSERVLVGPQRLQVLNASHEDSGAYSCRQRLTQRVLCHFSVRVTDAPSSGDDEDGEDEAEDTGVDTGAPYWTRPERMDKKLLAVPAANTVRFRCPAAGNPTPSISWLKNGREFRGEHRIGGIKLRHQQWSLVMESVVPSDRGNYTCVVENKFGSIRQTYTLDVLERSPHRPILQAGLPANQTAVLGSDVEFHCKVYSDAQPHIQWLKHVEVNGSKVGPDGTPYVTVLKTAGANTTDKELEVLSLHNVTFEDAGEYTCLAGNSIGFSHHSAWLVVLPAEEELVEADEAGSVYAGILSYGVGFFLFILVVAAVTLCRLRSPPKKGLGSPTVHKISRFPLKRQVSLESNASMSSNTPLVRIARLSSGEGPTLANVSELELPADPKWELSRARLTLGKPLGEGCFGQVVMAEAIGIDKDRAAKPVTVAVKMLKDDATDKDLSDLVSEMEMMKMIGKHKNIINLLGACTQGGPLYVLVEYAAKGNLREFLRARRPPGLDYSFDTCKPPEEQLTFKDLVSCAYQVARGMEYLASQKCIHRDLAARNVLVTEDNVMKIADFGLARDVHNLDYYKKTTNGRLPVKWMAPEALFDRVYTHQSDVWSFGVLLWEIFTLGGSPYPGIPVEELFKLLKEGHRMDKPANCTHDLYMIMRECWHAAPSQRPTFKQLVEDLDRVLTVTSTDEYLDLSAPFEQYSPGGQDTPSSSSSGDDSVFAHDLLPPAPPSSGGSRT", "assay": "Liability panel screening by DSF: FGFR3", "assay_type": "binding", "conditions": "DSF, 20 µM, n=2; read-out: Mean ΔTM FGFR3", "outline": "as §1"}, "[11]": {"test_system": "HEK293T cells", "assay": "Cytotoxicity: apoptosis induction (caspase-3/7 DEVD fluorogenic DNA dye)", "conditions": "3 µM; HEK293T, 24 h; apoptotic cell count normalized to 0.1% DMSO; single replicates"}, "[12]": {"molecular_target": "T6, CDK2 (Homo sapiens, UniProt P24941)", "T6 construct": "made in house", "assay": "Liability panel screening by DSF: CDK2", "assay_type": "binding", "conditions": "DSF, 20 µM, n=2; read-out: Mean ΔTM CDK2", "outline": "as §1"}, "[13]": {"test_system": "NF-κB activity in HEK293 NF-κB reporter cells", "assay": "NF-kB activity assay (GFP reporter, ionomycin/PMA)", "assay_type": "cell-based", "conditions": "n=3", "outline": "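Reporter readout: GFP-expressing cells normalized to confluence, imaged every 90 min across 24 h after ionomycin (100 ng/mL)/PMA (10 ng/mL) stimulation of HEK293 cells pre-treated 4 h with compound (0.1% DMSO); triplicate independent experiments.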"}, "[14]": {"test_system": "NR3B3 (ERRγ)", "conditions": "ref Supplementary Table 1; cited from earlier work"}, "[15]": {"molecular_target": "T7, BRPF1 (Homo sapiens, UniProt P55201)", "T7 construct": "This panel comprised ten highly ligandable kinases and bromodomains; made in house", "T7 sequence (P55201 628-732 limits assumed)": "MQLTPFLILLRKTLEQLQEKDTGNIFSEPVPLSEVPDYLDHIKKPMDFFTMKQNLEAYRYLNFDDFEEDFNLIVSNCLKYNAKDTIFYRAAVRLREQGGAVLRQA", "assay": "Liability panel screening by DSF: BRPF1", "assay_type": "binding", "conditions": "DSF, 20 µM, n=2; read-out: Mean ΔTM BRPF1", "outline": "as §1"}, "[16]": {"molecular_target": "T8, AURKA (Homo sapiens, UniProt O14965)", "T8 construct": "made in house", "T8 sequence (O14965 1-403)": "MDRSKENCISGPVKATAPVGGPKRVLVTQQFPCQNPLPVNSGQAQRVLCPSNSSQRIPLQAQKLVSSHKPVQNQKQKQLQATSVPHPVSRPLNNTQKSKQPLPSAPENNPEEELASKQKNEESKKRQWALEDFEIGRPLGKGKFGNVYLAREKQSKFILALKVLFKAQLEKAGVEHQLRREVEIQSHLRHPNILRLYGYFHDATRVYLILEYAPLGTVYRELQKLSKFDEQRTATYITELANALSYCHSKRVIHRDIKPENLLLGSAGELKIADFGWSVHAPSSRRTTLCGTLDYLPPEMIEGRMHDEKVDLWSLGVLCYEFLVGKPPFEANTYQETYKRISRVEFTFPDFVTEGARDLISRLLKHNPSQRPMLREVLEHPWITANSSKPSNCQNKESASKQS", "assay": "Liability panel screening by DSF: AURKA", "assay_type": "binding", "conditions": "DSF, 20 µM, n=2; read-out: Mean ΔTM AURKA", "outline": "as §1"}, "[17]": {"test_system": "ATF6 activity in Hela ATF6 reporter cells", "assay": "Endoplasmic reticulum stress assay (ATF6 Renilla luciferase reporter, tunicamycin)", "assay_type": "cell-based", "outline": "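ER stress was induced by 100 ng/mL tunicamycin added 4 h after compound (0.1% DMSO) to HeLa ATF6 reporter cells. After 18 h more, Renilla luciferase signal was read and expressed relative to DMSO control, n=5 biological replicates.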"}, "[18]": {"molecular_target": "T9, CSNK1D (Homo sapiens, UniProt P48730)", "T9 construct": "made in house", "T9 sequence (P48730 whole entry, species assumed)": "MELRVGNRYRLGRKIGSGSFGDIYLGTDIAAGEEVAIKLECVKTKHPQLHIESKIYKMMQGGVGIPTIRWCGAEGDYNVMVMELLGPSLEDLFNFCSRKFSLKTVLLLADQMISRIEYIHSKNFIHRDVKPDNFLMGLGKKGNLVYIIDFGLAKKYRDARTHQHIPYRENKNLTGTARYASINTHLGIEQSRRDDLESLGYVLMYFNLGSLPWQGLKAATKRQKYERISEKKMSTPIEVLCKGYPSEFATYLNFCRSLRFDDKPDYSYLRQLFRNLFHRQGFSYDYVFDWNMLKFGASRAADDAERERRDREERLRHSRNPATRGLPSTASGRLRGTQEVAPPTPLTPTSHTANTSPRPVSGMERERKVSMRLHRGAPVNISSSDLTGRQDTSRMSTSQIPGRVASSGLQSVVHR", "assay": "Liability panel screening by DSF: CSNK1D", "assay_type": "binding", "conditions": "DSF, 20 µM, n=2; read-out: Mean ΔTM CSNK1D", "outline": "as §1"}, "[19]": {"molecular_target": "T10, MAPK1 (Homo sapiens, UniProt P28482)", "T10 construct": "made in house", "T10 sequence (P28482 whole entry, species assumed)": "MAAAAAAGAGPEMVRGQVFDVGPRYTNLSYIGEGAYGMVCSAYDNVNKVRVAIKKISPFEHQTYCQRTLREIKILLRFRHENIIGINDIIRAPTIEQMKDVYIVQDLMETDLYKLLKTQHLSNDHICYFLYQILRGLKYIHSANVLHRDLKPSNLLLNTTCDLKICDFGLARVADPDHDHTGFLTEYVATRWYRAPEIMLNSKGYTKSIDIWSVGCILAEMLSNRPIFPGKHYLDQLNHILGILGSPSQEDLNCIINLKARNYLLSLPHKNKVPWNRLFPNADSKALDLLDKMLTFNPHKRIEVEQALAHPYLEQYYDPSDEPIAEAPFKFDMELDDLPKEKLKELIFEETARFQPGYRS", "assay": "Liability panel screening by DSF: MAPK1", "assay_type": "binding", "conditions": "DSF, 20 µM, n=2; read-out: Mean ΔTM MAPK1", "outline": "as §1"}}, "note": "“And” between values parts separate entries of the source, which are not always exact repeats. Equal entries are not always repeated.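 For Necrosis induction [NI] in this document: compounds applied in DMEM high glucose with 0.1% FCS and 0.1% DMSO, necrotic HEK293T cells counted by red staining of cells whose plasma membranes had become permeable.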", "data": [{"smiles": "CC(C)c1ccc(/C=N/NC(=O)c2ccc(O)cc2)cc1", "note": "[GSK4716]", "values": [{"measurement": "VP16 control [fold reporter gene activity]", "setting": "[1]", "result": "1.46 fold reporter gene activity and 1.30 fold reporter gene activity and 1.47 fold reporter gene activity"}, {"measurement": "ΔTm at 20 µM", "setting": "[2]", "result": -3.45, "unit": "°C"}, {"measurement": "Metabolic activity [MA]", "setting": "[3]", "result": "1.04 and 0.92 and 0.86 and 0.83 and 0.84 (2×) and 0.81 and 0.76"}, {"measurement": "rel. activity from literature, NR3B2 (ERRβ): fold activation", "setting": "[4]", "result": 10, "unit": "fold"}, {"measurement": "ΔTm at 20 µM", "setting": "[5]", "result": 0.64, "unit": "°C"}, {"measurement": "Growth rate [GR]", "setting": "[6]", "result": "0.56 and 4.17 and 0.59 and 0.95 and 0.79 and 0.39 and 0.32 and 1.23 and 0.96 and 33.22"}, {"measurement": "Necrosis induction [NI]", "setting": "[7]", "result": "0.73 and 0.72 and 1.06 and 0.88"}, {"measurement": "ΔTm at 20 µM", "setting": "[8]", "result": 1.07, "unit": "°C"}, {"measurement": "ΔTm at 20 µM", "setting": "[9]", "result": -0.72, "unit": "°C"}, {"measurement": "ΔTm at 20 µM", "setting": "[10]", "result": 0.7, "unit": "°C"}, {"measurement": "Apoptosis induction [AI]", "setting": "[11]", "result": "1.16 and 0.91 and 0.96 and 0.89 and 0.51 and 0.66"}, {"measurement": "ΔTm at 20 µM", "setting": "[12]", "result": 1.04, "unit": "°C"}, {"measurement": "Mean NFκB response", "setting": "[13]; 3 µM, 1,5 h", "result": "3350.67 GFP+-cells/confluence ∙ 1000"}, {"measurement": "Mean NFκB response", "setting": "[13]; 3 µM, 4,5 h", "result": "4011.96 GFP+-cells/confluence ∙ 1000"}, {"measurement": "Mean NFκB response", "setting": "[13]; 3 µM, 7,5 h", "result": "8902.65 GFP+-cells/confluence ∙ 1000"}, {"measurement": "Mean NFκB response", "setting": "[13]; 3 µM, 10,5 h", "result": "19241.33 GFP+-cells/confluence ∙ 1000"}, {"measurement": "Mean NFκB response", "setting": "[13]; 3 µM, 13,5 h", "result": "27824.67 GFP+-cells/confluence ∙ 1000"}, {"measurement": "Mean NFκB response", "setting": "[13]; 3 µM, 16,6 h", "result": "34184.33 GFP+-cells/confluence ∙ 1000"}, {"measurement": "Mean NFκB response", "setting": "[13]; 3 µM, 19,5 h", "result": "38593.33 GFP+-cells/confluence ∙ 1000"}, {"measurement": "Mean NFκB response", "setting": "[13]; 3 µM, 22,5 h", "result": "41930.00 GFP+-cells/confluence ∙ 1000"}, {"measurement": "Mean NFκB response", "setting": "[13]; 3 µM, 3 h", "result": "3264.72 GFP+-cells/confluence ∙ 1000"}, {"measurement": "Mean NFκB response", "setting": "[13]; 3 µM, 6 h", "result": "5255.77 GFP+-cells/confluence ∙ 1000"}, {"measurement": "Mean NFκB response", "setting": "[13]; 3 µM, 9 h", "result": "14135.33 GFP+-cells/confluence ∙ 1000"}, {"measurement": "Mean NFκB response", "setting": "[13]; 3 µM, 12 h", "result": "23629.33 GFP+-cells/confluence ∙ 1000"}, {"measurement": "Mean NFκB response", "setting": "[13]; 3 µM, 15 h", "result": "31599.67 GFP+-cells/confluence ∙ 1000"}, {"measurement": "Mean NFκB response", "setting": "[13]; 3 µM, 18 h", "result": "36410.00 GFP+-cells/confluence ∙ 1000"}, {"measurement": "Mean NFκB response", "setting": "[13]; 3 µM, 21 h", "result": "40543.33 GFP+-cells/confluence ∙ 1000"}, {"measurement": "Mean NFκB response", "setting": "[13]; 3 µM, 24 h", "result": "43546.67 GFP+-cells/confluence ∙ 1000"}, {"measurement": "rel. activity from literature, NR3B3 (ERRγ): fold activation", "setting": "[14]", "result": 6, "unit": "fold"}, {"measurement": "ΔTm at 20 µM", "setting": "[15]", "result": 0.6, "unit": "°C"}, {"measurement": "ΔTm at 20 µM", "setting": "[16]", "result": 0.71, "unit": "°C"}, {"measurement": "ATF6 activity (tunicamycin-induced endoplasmic reticulum stress)", "setting": "[17]; Hela ATF6 reporter cells, tunicamycin 100 ng/mL, 18 h, compounds at recommended concentrations, n = 5", "result": "strongly ameliorated the tunicamycin-induced endoplasmic reticulum stress"}, {"measurement": "activity at 3 µM", "setting": "[17]; Homo sapiens, HeLa, 3 µM, single replicates n=1 to n=5, read-out: ER stress [rel. ATF6 activity]", "result": 15, "unit": "%"}, {"measurement": "ΔTm at 20 µM", "setting": "[18]", "result": -0.73, "unit": "°C"}, {"measurement": "ΔTm at 20 µM", "setting": "[19]", "result": 0.09, "unit": "°C"}]}]}
